PubChem BioAssay AID2765 (Broad Institute, 2010)
Active and inactive are the calls of the source.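 Rule for the calls: active = half-maximal concentration for the rise in caspase light signal at or below ten times the top tested dose; inconclusive = flat fit between 30% and 70% activity, or unreliable curve fit; inactive = the rest.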

System: MEF A1-2A-BIM cells, caspase 3/7 luminescence, 3 h
Assay: caspase activation in A1-2A-BIM MEF cells, dose response, A1 inhibitor project, cell-based, luminescence, retest (AID 2765)

SMILES | EC50
CC(C)CN(CC(C)C)C(=O)c1cc2c(=O)n3ccccc3nc2s1 | > 35 µM (inactive)
CC(C)(C)c1ccc2c(c1)OC(C(=O)N/N=C\c1ccc[nH]1)CO2 (stereo unspecified) | > 35 µM (inactive)
Oc1cc2c(cc1CN1CCN(c3ncccn3)CC1)OCO2 | > 35 µM (inactive)
CC1=NNC(=O)/C1=C\c1cn(-c2ccccc2)nc1-c1cccs1 | 15.1 µM
O=C(CSc1nnc(-c2ccncc2)o1)Nc1ccc(F)c(F)c1 | > 35 µM (inactive)
COc1ccc(NS(=O)(=O)c2cc(NC(=O)c3ccc(Cl)cc3)ccc2N2CCOCC2)cc1 | > 35 µM (inactive)
NS(=O)(=O)c1ccc(S(=O)(=O)c2ccccc2)nc1 | > 35 µM (inactive)
CCOC(=O)c1[nH]c2ccccc2c1NC(=S)Nc1cc(C)ccc1C | > 35 µM (inactive)
O=C(O)c1cn(-c2ccccc2)c(=O)c2ccccc12 | > 35 µM (inactive)
CCOc1nc2c(c(-c3cccs3)c1C#N)Cc1ccccc1-2 | > 35 µM (inactive)
COc1ccc(C(=O)Nc2cccc3c2CCCC3)cc1 | > 35 µM (inactive)
O=C1N/C(=C/c2ccc(N3CCOCC3)o2)C(=O)N1c1cccc(Cl)c1 | > 35 µM (inactive)
COc1ccc(NC(=O)/C=C/C(=O)O)c([N+](=O)[O-])c1 | > 35 µM (inactive)
CC1CCCCC12NC(=O)N(CC(=O)c1ccc(Cl)s1)C2=O (stereo unspecified) | > 35 µM (inactive)
Cc1occc1-c1nnc(-c2cc([N+](=O)[O-])cc([N+](=O)[O-])c2)o1 | > 35 µM (inactive)
Cc1cc(N2C(=O)CCC2=O)n(-c2ccccc2)n1 | > 35 µM (inactive)
CCOc1ccccc1/C=C/c1nc2ccccc2[nH]c1=O | > 35 µM (inactive)
Cc1cc(C)cc(COn2ccnc2)c1 | > 35 µM (inactive)
Cc1ccc(Cl)cc1NC(=O)CC1NC2CCCCC2NC1=O (stereo unspecified) | > 35 µM (inactive)
Cc1ccc(NC(=O)CN(C)S(=O)(=O)c2cnc[nH]2)c(C)c1 | > 35 µM (inactive)
CSCCC(NS(=O)(=O)c1ccc(C)cc1)C(=O)NCCc1c[nH]c2ccccc12 (stereo unspecified) | > 35 µM (inactive)
CCCCCCCC/C=C\CCCCCCCC(=O)O | > 35 µM (inactive)
C#CC(=O)N(c1cc(OC)ccc1OC)C(C(=O)NC1CCCC1)c1cccs1 (stereo unspecified) | > 35 µM (inactive)
CCCCCCCC/C=C\CCCCCCCC(=O)NCCc1ccc(O)c(O)c1 | 8.06 µM

SMILES | EC50
Cc1ccc(C(=O)N/C(=C\c2sccc2C)C(=O)NCCCN2CCOCC2)cc1 | > 35 µM (inactive)
Cc1cccc(C)c1NC(=S)Nc1ccccc1C(=O)NCc1ccco1 | > 35 µM (inactive)
Cc1cccc(-n2c(Cc3ccccc3)n[nH]c2=S)c1 | > 35 µM (inactive)
CCCCc1ccc(-c2csc(/C(C#N)=C\c3ccc(C)o3)n2)cc1 | > 35 µM (inactive)
COc1ccc(Nc2cc3n(c(=O)n2)CCc2cc(OC)c(OC)cc2-3)c(C)c1 | > 35 µM (inactive)
COC(=O)C(Cc1ccccc1)OS(N)(=O)=O (stereo unspecified) | > 35 µM (inactive)
Cc1c(C(=O)c2ccccc2C(=O)O)sc2ccccc12 | > 35 µM (inactive)
NS(=O)(=O)c1ccc(CCNC(=O)CN2CCN(S(=O)(=O)c3ccccc3F)CC2)cc1 | > 35 µM (inactive)
CCSc1ccc(-c2nn(-c3ccccc3)cc2/C=C(/C#N)C(=O)NC)cc1 | > 35 µM (inactive)
O=C(Nc1ccc(S(=O)(=O)N2CCOCC2)cc1)c1ccco1 | > 35 µM (inactive)
O=C(NCc1ccco1)/C(=C/c1ccc([N+](=O)[O-])cc1)NC(=O)c1ccco1 | > 35 µM (inactive)
CCN(CC)CCCN=C(C)c1c(O)n(-c2ccccc2)c(=O)[nH]c1=O | > 35 µM (inactive)
Cc1n[nH]c(C)c1S(=O)(=O)N1CCC(C(=O)O)CC1 | > 35 µM (inactive)
Cc1ccc(C)c(NC(=S)NC(NC(=O)Cc2cccc3ccccc23)C(Cl)(Cl)Cl)c1 (stereo unspecified) | 5.84 µM
CCCCn1c(N2CCCC2)nc2c1c(=O)[nH]c(=O)n2C | > 35 µM (inactive)
Nc1ccc(N2CCN(Cc3ccccc3Cl)CC2)c(Cl)c1 | > 35 µM (inactive)
COC(=O)c1c(NC(=O)C2CC(C)=C(C)CC2C(=O)O)sc2c1CCCCC2 (stereo unspecified) | > 35 µM (inactive)
CCOC(=O)CCC(=O)Nc1ccc(S(=O)(=O)N2CCC(C)CC2)cc1 | > 35 µM (inactive)
CCOC(=O)[C@H]1[C@H]2COc3ccc(OC)cc3[C@@H]2N2C(=O)CN(CC3CCCO3)C(=O)[C@@]12C (stereo partly specified) | > 35 µM (inactive)
COc1ccc(N/C(=N/c2nc(C)cc(C)n2)NC(=O)Nc2ccc(Cl)c(Cl)c2)c(OC)c1 | > 35 µM (inactive)
Cc1noc(C)c1COc1ccc(C(=O)OC(C)C(=O)Nc2ccc(N3CCOCC3)cc2)cc1 (stereo unspecified) | > 35 µM (inactive)
CCSc1nc(NCCN(C)C)c2c3c(sc2n1)COC(C)(CC)C3 (stereo unspecified) | > 35 µM (inactive)
Cn1nnnc1Sc1ncnc2scc(-c3cccc4c3sc3ccccc34)c12 | > 35 µM (inactive)
C#CCn1ccc(O)c(Cc2ccccc2)c1=O | > 35 µM (inactive)

SMILES | EC50
CC(=O)c1ccc(N(C(=O)c2csnn2)C(C(=O)NC(C)(C)C)c2cccs2)cc1 (stereo unspecified) | > 35 µM (inactive)
Cc1ccc(CCC(=O)Nc2ccc(Br)cc2)o1 | > 35 µM (inactive)
Cc1cc(-c2onc(C)c2C(=O)Nc2ccc(C(F)(F)F)cc2)no1 | > 35 µM (inactive)
CCCn1cc(S(=O)(=O)c2ccc(C)cc2)c(=O)c2cc(OC)c(OC)cc21 | > 35 µM (inactive)
COc1ccc2[nH]c3c(=O)n(/N=C/[C@H]4C(C)C=C(C)CC4C)c(=O)[nH]c3c2c1 (stereo partly specified) | 16 µM
COC(=O)C1=C(c2ccc(F)cc2F)C[C@@H]2CC[C@H]1N2C(=O)N1CCC(O)CC1 | > 35 µM (inactive)
Cc1cc(=O)oc2c1c(C)nn2-c1ccc(Cl)cc1 | > 35 µM (inactive)
O=C1N(S(=O)(=O)c2ccccc2F)C(=O)C2(CCCC2)N1S(=O)(=O)c1ccccc1F | > 35 µM (inactive)
Cc1cccc(C)c1NC(=O)c1cnccn1 | > 35 µM (inactive)
O=C(Nc1cc(Cl)ccc1N1CCOCC1)c1cccnc1 | > 35 µM (inactive)
Cc1ccc(C#N)c(SCC(=O)Nc2nccs2)n1 | > 35 µM (inactive)
CC(C)c1cccc(-c2ccc3c(c2)S(=O)(=O)c2cccc(C(=O)NC4CCCC4)c2C3=O)c1 | > 35 µM (inactive)
O=C(c1ccccc1)c1n[nH]c(-c2ccccc2)cc1=O | > 35 µM (inactive)
Cc1cccc(NC(=S)NCCc2ccc(F)cc2)c1C | > 35 µM (inactive)
O=C1C=CC(=O)N1c1cccc(-c2ccccc2)c1 | > 35 µM (inactive)
Cc1cccc(NC(=O)CCC(=O)N/N=C/c2ccco2)c1C | > 35 µM (inactive)
O=C(CCl)N=c1sccn1Cc1ccccc1Cl | > 35 µM (inactive)
CCCCCC(=O)N1CCCC1 | > 35 µM (inactive)
CN(C)S(=O)(=O)c1cccc(C(=O)Nc2n[nH]c(C(F)(F)F)n2)c1 | > 35 µM (inactive)
COCCN(C(=O)CSc1nc2ccccc2c(=O)n1C(C)COC)c1c(N)n(Cc2ccccc2)c(=O)[nH]c1=O (stereo unspecified) | > 35 µM (inactive)
CN1CCN(c2nccc3c2ncn3C)CC1 | > 35 µM (inactive)
O=C(NCCCN1CCCCC1)c1ccc2c(c1)NC(=O)c1ccccc1S2 | > 35 µM (inactive)
Cc1cccc(NC(=O)CSc2nnc(CNC(=O)c3ccc(S(=O)(=O)N(C)C)cc3)n2-c2ccc(F)cc2)c1 | > 35 µM (inactive)
